Values after ≈ are worked out from the molar mass of the structure shown. Read-outs that look alike come from different tables or passages of the source.
Assays:
[1] = In vitro toxicity assay (resazurin), HL-60 cells; type: cell-based, human; conditions: human
Experimental: (§1) Bloodstream forms of Trypanosoma brucei (clone 427-221a) and human myeloid leukaemia HL-60 cells were maintained in Baltz medium supplemented with 16.7% heat-inactivated bovine serum in a humidified atmosphere containing 5% CO2 at 37 °C. Promastigotes of Leishmania major (strain MHOM/IL/81/Friedlin [16]) were cultured in Schneider’s insect medium supplemented with 10% heat-inactivated foetal bovine serum in a humidified atmosphere containing 5% CO2 at 27 °C.
(§2) Toxicity assays were carried out as previously described with some modifications. In brief, cells were seeded in 96-well plates in a final volume of 200 μL of appropriate medium containing various concentrations of test compounds (tenfold dilution from 100 µM to 1 nM) and 1% DMSO. Wells just containing medium and 1% DMSO served as controls. The initial cell densities were 1 × 10^4/mL for T. brucei bloodstream forms, 2.5 × 10^5/mL for L. major promastigotes, and 5 × 10^4/mL for HL-60 cells. After 24 h incubation, 20 µL of a 0.5 mM resazurin solution prepared in PBS was added and the cells were incubated for a further 48 h. Thereafter, the absorbance of wells was read on a BioTek ELx808 microplate reader using a test wavelength of 570 nm and a reference wavelength of 630 nm. The 50% growth inhibition (GI50) value, i.e., the concentration of a compound necessary to reduce the growth rate of cells by 50% compared to the control, was determined by linear interpolation. The minimum inhibitory concentration (MIC) values, i.e. the concentration of a compound at which all trypanosomes and human cells were killed, was determined microscopically.

[2] = test system: human myeloid leukaemia HL-60 cells; assay: In vitro toxicity assay (resazurin), HL-60 cells; type: cell-based; conditions: 72 h; for GI50: 50% growth inhibition, resazurin
Experimental: as §1, §2

[3] = test system: promastigotes of Leishmania major (strain MHOM/IL/81/Friedlin); assay: In vitro toxicity assay (resazurin), L. major promastigotes; type: cell-based; conditions: 72 h; for GI50: read-out: L. major GI50; for MIC: read-out: L. major MIC
Experimental: as §1, §2

[4] = test system: intracellular L. major amastigotes in J774 macrophages; assay: Intra-macrophages amastigote assay; type: cell-based, Leishmania major; conditions: for Killing of intracellular amastigotes: 72 h
Experimental: The intra-macrophages amastigote assay was performed as previously described with some modification. In brief, 1 mL of J774 cells (7 × 10^4) suspended in RPMI supplemented with 10% foetal bovine serum were pipetted into wells of a 24 well plate containing sterile glass coverslips. Subsequently, cells were incubated overnight at 37 °C and 5% CO2 in a humidified incubator. The next day, metacyclic L. major promastigotes (MOI 20:1) were added and the plates incubated for 24 h at 34 °C and 5% CO2 in a humidified incubator. After 24 h incubation, cells were washed 4 times with PBS to remove parasites that had not invaded any macrophage. Then, cells were incubated with compound 1 at the following concentrations: 10, 2.5, 1.25, 0.625 and 0.1 µM. Amphotericin B (0.1 µM) was used as a positive control and no drug treatment as a negative control. After 72 h of drug incubation, cells were gently washed 4 times with PBS and fixed with 4% paraformaldehyde for 30 min. Thereafter, cells were washed once with water and stained with Giemsa for 40 min. Cells on coverslips were then destained using the acetone-xylene protocol as follows: first, pure acetone; second, pure acetone; third, acetone/xylene 9:1; forth, acetone/xylene 7:3; fifth, acetone/xylene 3:7; sixth, pure xylene. Finally, coverslips were mounted on slides with Entellan new mounting medium. Infection index (parasites/cell) were determined by counting approximately 300 cells per coverslips using an Olympus BX50 microscope with a 100 × N.A. 1.35 oil immersion objective.
Fig. 2 Effect of compound 1 on intracellular L. major amastigotes. After infection of J774 macrophages with metacyclic promastigotes of L. major, cells were treated with compound 1 or amphotericin B (AM) or with DMSO alone (DMSO) 24 h post infection. After 72 h incubation, coverslips with cells were washed with PBS, fixed with paraformaldehyde and stained with Giemsa. Subsequently, cells were destained and coverslips mounted, and the infection index determined. Mean values ± SD of three independent experiments run in triplicate are shown

[5] = test system: bloodstream forms of Trypanosoma brucei (clone 427-221a); assay: In vitro toxicity assay (resazurin), T. brucei bloodstream forms; type: cell-based; conditions: for GI50: read-out: T. brucei GI50; for MIC: read-out: T. brucei MIC
Experimental: as §1, §2

[6] = test system: immortalised human embryonic kidney cell line HEK239T; parameters: method as in PMID 28917086; conditions: cited from earlier work
[7] = test system: bloodstream forms of T. brucei rhodesiense; parameters: method as in PMID 17253841; conditions: cited from earlier work
[8] = test system: Axenic grown amastigotes of L. donovani; parameters: method as in PMID 17253841; conditions: cited from earlier work
[9] = Leishmania major, promastigotes, 50% growth inhibition, resazurin
[10] = Leishmania major, promastigotes, determined microscopically
[11] = HL-60 cells (human myeloid leukaemia), cytotoxicity, 50% growth inhibition, resazurin, 72 h, read-out: HL-60 cells GI50
[12] = cytotoxicity, determined microscopically
[13] = Trypanosoma brucei, 72 h, bloodstream forms, 50% growth inhibition, resazurin, 72 h
[14] = Trypanosoma brucei, bloodstream forms, concentration at which all cells were killed, determined microscopically, 72 h
[15] = cytotoxicity, 50% growth inhibition, resazurin, 72 h, read-out: HL-60 cells GI50

| SMILES | GI50 [3, 9] [µM] | MIC [3, 10] [µM] | GI50 at 72 h [1, 11] [µM] | HL-60 cells MIC [2, 12] [µM] | GI50 [5, 13] [µM] | MIC [5, 14] [µM] | GI50 at 72 h [1, 15] [µM] | GI50 ([5]; Trypanosoma brucei, 72 h) [µM] | MIC ([5]; Trypanosoma brucei, 72 h) [µM] | GI50 ([3]; Leishmania major) [µM] | MIC ([3]; Leishmania major) [µM] | other results |
| --- | --- | --- | --- | --- | --- | --- | --- | --- | --- | --- | --- | --- |
| C[C@@H]1[C@H](O)[C@@H](C)/C=C/C=C/C=C/C=C/C=C/C=C/C=C/[C@H](O[C@@H]2O[C@H](C)[C@@H](O)[C@H](N)[C@@H]2O)C[C@@H]2O[C@](O)(C[C@@H](O)C[C@@H](O)[C@H](O)CC[C@@H](O)C[C@@H](O)CC(=O)O[C@H]1C)C[C@H](O)[C@H]2C(=O)O [Amphotericin B, reference compound] | 0.036 ± 0.001 | 0.1 (≈ 0.0924 µg/mL) | – | – | – | – | – | – | – | – | – | GI50 at 72 h ([1]; HL-60 cells GI50): 50.7 ± 9.3 µM; HL-60 cells MIC ([2]; human): > 100 µM; Killing of intracellular amastigotes ([4]; at 0.1 μM, positive control): completely destroy |
| CC1(C)C(=O)C=C[C@]2(C)C3C(=O)C[C@@]4(C)[C@H](c5ccoc5)OC(=O)[C@H]5O[C@]54[C@]3(C)CC[C@@H]12 (stereo partly shown) [Compound 1, kotschyienone A] | 2 to 3 | 10 (≈ 4.39 µg/mL) | 31.5 to 46.2 | 100 | 2 to 3 | 10 (≈ 4.39 µg/mL) | – | – | – | – | – | GI50 ([2]; cytotoxicity): 31.5 ± 3.7 µM; GI50 ([5]; Trypanosoma brucei, bloodstream forms, same value as 2.48 μM in mass units): 1.09 µg/mL; GI50 ([5]; bloodstream forms, 50% growth inhibition, resazurin, 72 h): 2.48 ± 0.12 µM; GI50 ([3]; promastigotes, 50% growth inhibition, resazurin): 2.86 ± 0.89 µM; cytotoxicity for HEK239T [6]: > 200 µg/mL; GI50 ([4]; Leishmania major, J774, same value as 1.51 μM in mass units): 0.66 µg/mL (≈ 1.51 µM); Killing of intracellular amastigotes ([4]; at 10 μM): killed completely; ED50 (50% effective dose), reduction of parasite burden of infected macrophages ([4]; intracellular amastigotes in J774 macrophages, 72 h drug incubation, infection index): 1.51 µM |
| CC1(C)C(=O)C=C[C@]2(C)C3C(=O)C[C@@]4(C)[C@H](c5ccoc5)OC(=O)[C@H]5O[C@]54[C@]3(C)[C@H](O)C[C@@H]12 (stereo partly shown) [Compound 2, kotschyienone B] | 14.9 ± 5.9 | 100 (≈ 45.5 µg/mL) | > 100 | > 100 | 14.2 ± 2.9 | 100 (≈ 45.5 µg/mL) | – | – | – | – | – | – |
| CC1(C)C(=O)C=C[C@]2(C)C3CC[C@@]4(C)[C@H](c5ccoc5)OC(=O)[C@H]5O[C@]54[C@]3(C)[C@H](O)C[C@@H]12 (stereo partly shown) [Compound 3, 7-deacetylgedunin] | – | – | – | 100 | – | – | 31.5 to 46.2 | 14.5 ± 3.2 | 100 (≈ 44.1 µg/mL) | 11.6 ± 1.6 | 100 (≈ 44.1 µg/mL) | GI50 [7]: 3.4 µM; GI50 ([2]; cytotoxicity): 46.2 ± 6.7 µM; GI50 [8]: ~1 µM |
| CC1(C)C(=O)C=C[C@]2(C)C3CC[C@@]4(C)[C@H](c5ccoc5)OC(=O)[C@H]5O[C@]54[C@]3(C)C(=O)C[C@@H]12 (stereo partly shown) [Compound 4, 7-deacetyl-7-oxogedunin] | – | – | – | > 100 | – | – | > 100 | 3.18 ± 0.48 | > 100 | 7.63 ± 2.78 | > 100 | GI50 [7]: 3.4 µM; GI50 [8]: ~1 µM |
| C=C1[C@@H]([C@@]2(C)C=CC(=O)C(C)(C)[C@@H]2CC(=O)OC)CC[C@@]2(C)[C@H](c3ccoc3)OC(=O)[C@H]3O[C@]132 [Compound 5, andirobin] | > 100 | > 100 | > 100 | > 100 | 11.5 ± 6.3 | > 100 | – | – | – | – | – | – |
| C=C1[C@@H]2CC[C@@]3(C)[C@H](c4ccoc4)OC(=O)C[C@]13O[C@H]1CC(=O)C(C)(C)[C@H](CC(=O)OC)[C@]12C [Compound 6, methyl angolensate] | – | – | – | > 100 | – | – | > 100 | 6.04 ± 2.25 | > 100 | > 100 | > 100 | – |
| Cc1ccc(C(=O)Nc2ccc(S(=O)(=O)O)c3cc(S(=O)(=O)O)cc(S(=O)(=O)O)c23)cc1NC(=O)c1cccc(NC(=O)Nc2cccc(C(=O)Nc3cc(C(=O)Nc4ccc(S(=O)(=O)O)c5cc(S(=O)(=O)O)cc(S(=O)(=O)O)c45)ccc3C)c2)c1 [Suramin, reference compound] | – | – | – | – | 0.042 ± 0.004 | 1 (≈ 1.3 µg/mL) | – | – | – | – | – | GI50 at 72 h ([1]; HL-60 cells GI50): > 100 µM; HL-60 cells MIC ([2]; human): > 100 µM |

From publication PMC7253382, “Trypanocidal and leishmanicidal activity of six limonoids” (Journal of Natural Medicines, 2020)
